Data from patent US12649980B2, “Three-dimensional surface for protein and small molecule microarrays” (The Johns Hopkins University, priority 2019, dated 2026).

Tests used:
GLUT1 [1] = molecular target: T1, GLUT1 (Homo sapiens, UniProt P11166); test: rapafucin 3D microarray screen with GLUT1-containing cell lysate; assay type: binding; conditions: signal-to-background ratio, 3D surface, lysate of GLUT1-overexpressing HEK293T; hit if SBR > 3
T1 construct: The full-length human SLC2A1, SLC2A3, and SLC2A4 genes were PCR amplified and inserted into pLenti6M vector 2; expressed in transfected cells
T1 sequence (P11166 1-492): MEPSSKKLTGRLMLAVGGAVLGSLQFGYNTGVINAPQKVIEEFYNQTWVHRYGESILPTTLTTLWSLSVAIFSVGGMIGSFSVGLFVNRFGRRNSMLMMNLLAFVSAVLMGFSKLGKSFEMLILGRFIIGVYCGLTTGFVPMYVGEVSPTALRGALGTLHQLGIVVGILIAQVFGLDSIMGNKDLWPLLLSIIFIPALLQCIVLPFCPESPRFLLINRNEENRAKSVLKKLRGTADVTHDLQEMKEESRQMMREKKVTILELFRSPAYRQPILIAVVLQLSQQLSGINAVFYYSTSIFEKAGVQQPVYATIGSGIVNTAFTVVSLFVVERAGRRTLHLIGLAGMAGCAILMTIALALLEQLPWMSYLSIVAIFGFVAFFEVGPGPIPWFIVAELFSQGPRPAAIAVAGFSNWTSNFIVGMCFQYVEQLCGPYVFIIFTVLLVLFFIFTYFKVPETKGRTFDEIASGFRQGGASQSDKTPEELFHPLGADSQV
Description: (§1) Once stock solutions of the rapafucin library were arrayed on the 2D or 3D surface and most of solvent carrier was evaporated, the crosslinking reaction was initiated by irradiating the surfaces with 365-nm wavelength UV light. Kawatani and Osada, Medchemcomm 2014, 5, 277-287. […] To screen for GLUT1-interacting rapafucins, GLUT1 was stably overexpressed in HEK293T cells and generated cell lysates containing detergent-solubilized recombinant GLUT1 (FIG. 10). The GLUT1-containing cell lysate was then incubated on both 2D and 3D rapafucin microarrays. After washing the slides to remove unbound proteins, the bound GLUT1 protein was detected with anti-GLUT1 antibodies, followed by visualization with Cy5-labeled secondary antibodies using a microarray scanner. Rapafucins were scored as positive hits when the corresponding SBR was greater than 3. Based on this criterion, a total of 17 rapafucin hits and one positive control BAY-876, a specific GLUT1 inhibitor, Siebeneicher et al., ChemMedChem 2016, 11, 2261-2271, were identified on the 3D rapafucin microarray. In contrast, only one hit (WL13-F11, also among the 17 hits identified from the 3D rapafucin microarray) was identified on the 2D rapafucin microarray (Table 1, FIG. 11).
The amine substrates (Arrayit, SMM) were immerged in a mixture of 2-bromoisobutyryl bromide (BIBB, 0.1 mM, as initiator) and propionyl bromide (10 mM, as horizontal spacer) with triethylamine (15 mM) in DCM for 4 hours. A degassed polymerization reaction mixture, containing copper (II) chloride dihydrate (CuCl2, 4 mmol), 2,2′-bipyridine (2 mmol), 75 mmol monomers mixture of 2-(dimethylamino)ethyl methacrylate (DMAEMA) and poly(ethylene glycol) methacrylate (PEGMA Mn 360) in 500 mL Milli-Q/MeOH, was mixed with freshly made ascorbic acid (4 mmol). The mixture was applied to 50 slides for 6 hours under the argon atmosphere for the surface-initiated polymerization. A gradient ratio of PEGMA and DMAEMA was set, including 10:0, 8:2, 5:5, 2:8 and 0:10 for an optimization purpose. The terminals of the brushes were further functionalized by N,N′-disuccinimidyl carbonate (DSC, 10 mM) and 4-dimethylaminopyridine (DMAP,10 mM) in DMF overnight to form succinimidyl carbonate intermediate, and, successively, diazirine linker 1 (10 mM) and N,Ndiisopropylethylamine (DIPEA, 50 mM) in DMF for 2 hours to couple the photoaffinity linker in dark at room temperature. At the end, the substrates were immerged in a 50 mM ethanolamine in DMF to block the residual carboxylic moiety. The slides were thoroughly washed by DMF, EtOH and DCM and dried in a fuming cupboard and ready for spotting.
10 mM of rapafucins in DMSO from the library were spotted onto the slides with a high-precision microarrayer (Nanoprint, Arrayit, CA) for a desired pattern in dark, which was loaded with 16 100-μm diameter micro-spotting pins. The pin heads were thoroughly washed and sonicated in ethanol and dried for 4 times under a compassed air between each sample loading. After overnight evaporation, the slides were exposed to 365-nm wavelength UV irradiation for 4 J/cm^2 by CL-1000L UV crosslinker (UVP, CA) for rapafucins covalent immobilization. The slides were ultrasonic cleaned successively in DCM, MeOH and Milli-Q water and stored in a −20° C. freezer.
(§2) In the optimization experiments, the slides were incubated with 50 nM purified recombinant FKBP12 for 1 hour, while in the GLUT1 screening, 10 mg/mL of cell lysate containing DDM-solubilized GLUT1 from GLUT1 overexpressed HEK293T was incubated for 1 hour. Successively, primary antibody and CY5 labeled secondary antibody were added for 1 hour. The chips were washed in buffer A for 5 mins 3 times after the sample and antibodies incubation. After centrifugation, the dried chips were scanned by a microarray scanner (Genepix, US) at 635-nm wavelength. The final result was analyzed by GenePix software.

GLUT1 [2] = molecular target: T1, GLUT1; test: rapafucin 2D microarray screen with GLUT1-containing cell lysate; assay type: binding; conditions: signal-to-background ratio, 2D surface, same lysate and conditions
Description: as §1, §2

A549 cells = test: [3H]-2DG uptake assay in A549 cells; assay type: cell-based, human; conditions: 10 min incubation with compound, mean ± s.d., n = 3
Experimental: To determine which of the 17 rapafucin hits inhibited the transporter activity of GLUT1, an orthogonal glucose uptake assay using 2-deoxy-D-[3H] glucose ([3H]-2DG), a nonhydrolyzable, radioactive glucose analog, was employed. Each hit was separately incubated with A549 cells for 10 min before the amount of [3H]-2DG taken up by the cells was measured using scintillation counting. […] The effect of JW11-D2 on uptake of [3H]-2DG in human red blood cells that exclusively express GLUT1 was then determined. Helgerson and Carruthers, J. Biol. Chem. 1987, 262, 5464-5475. […] To further improve the potency of JW11-D2, a structure-activity relationship (SAR) study was performed by synthesizing 21 new analogs of JW11-D2 using different amino acid building blocks.
The inhibitory activity of compounds on glucose transport was analyzed by measuring the cell uptake of [3H]-2DG as previously described. Ulanovskaya et al., Chem. Biol. 2011, 18, 222-230. Briefly, cells were washed twice and incubated in low-glucose medium for 10 min. Cells were added drugs and incubated for another 10 min before adding [3H]-2DG. After 10 min incubation with [3H]-2DG, cells were washed twice and lysed with 0.2 N NaOH plus 0.2% SDS. The cell lysate was transferred to a new tube containing 1 mL of optiphase supermix. Glucose uptake was quantified with a scintillation counter.

3D SBR (GLUT1 [1]) | 2D SBR (GLUT1 [2]) | IC50 (A549 cells) [nM] | Structure (SMILES)
3.4 ± 1.4 | <3.0 | > 3000 | CCCC[C@H]1C(=O)N[C@@H](Cc2ccccc2)C(=O)N(C)CCC=CC(=O)OCC(C)(C)C(=O)C(=O)N2CCCC[C@H]2C(=O)O[C@H](CCc2ccc(OC)c(OC)c2)c2cccc(c2)NC(=O)CCC(=O)N(C)[C@H](Cc2ccccc2)C(=O)N[C@@H](Cc2ccc(F)cc2)C(=O)N1C [HP05-A9]
7.9 ± 2.6 | <3.0 | > 3000 | CCC(C)C1C(=O)NC(Cc2ccccc2)C(=O)N(C)CCC=CC(=O)OCC(C)(C)C(=O)C(=O)N2CCCCC2C(=O)OC(CCc2ccc(OC)c(OC)c2)c2cccc(c2)OCC(=O)N(C)CC(=O)NC(Cc2ccc(F)cc2)C(=O)N1C (centres unmarked) [HP05-F5]
– | – | > 3000 | CCC(C)C1C(=O)N(C)CC(=O)N(C)CCC=CC(=O)OCC(C)(C)C(=O)C(=O)N2CCCCC2C(=O)OC(CCc2ccc(OC)c(OC)c2)c2cccc(c2)NC(=O)CCC(=O)N(C)C(CC(C)C)C(=O)NC(Cc2ccccc2)C(=O)N1C (centres unmarked) [JW11-D2-1]
– | – | > 3000 | CCC(C)C1C(=O)N2CCCC2C(=O)N(C)CCC=CC(=O)OCC(C)(C)C(=O)C(=O)N2CCCCC2C(=O)OC(CCc2ccc(OC)c(OC)c2)c2cccc(c2)NC(=O)CCC(=O)N(C)C(CC(C)C)C(=O)NC(Cc2ccccc2)C(=O)N1C (centres unmarked) [JW11-D2-2]
– | – | > 3000 | CCC(C)C1C(=O)N2CCCC2C(=O)N(C)CCC=CC(=O)OCC(C)(C)C(=O)C(=O)N2CCCCC2C(=O)OC(CCc2ccc(OC)c(OC)c2)c2cccc(c2)NC(=O)CCC(=O)N(C)C(CC(C)C)C(=O)NC(Cc2ccccc2)C(=O)N1C (centres unmarked) [JW11-D2-3]
– | – | 30.2 ± 2.3 | COc1ccc(CCC2OC(=O)C3CCCCN3C(=O)C(=O)C(C)(C)COC(=O)C=CCCN(C)C(=O)CNC(=O)C(C(C)C)N(C)C(=O)C(Cc3ccccc3)NC(=O)C(CC(C)C)N(C)C(=O)CCC(=O)Nc3cccc2c3)cc1OC (centres unmarked) [JW11-D2-4]
– | – | > 3000 | CCCCC1C(=O)NCC(=O)N(C)CCC=CC(=O)OCC(C)(C)C(=O)C(=O)N2CCCCC2C(=O)OC(CCc2ccc(OC)c(OC)c2)c2cccc(c2)NC(=O)CCC(=O)N(C)C(CC(C)C)C(=O)NC(Cc2ccccc2)C(=O)N1C (centres unmarked) [JW11-D2-7]
– | – | > 3000 | CCCC1C(=O)NCC(=O)N(C)CCC=CC(=O)OCC(C)(C)C(=O)C(=O)N2CCCCC2C(=O)OC(CCc2ccc(OC)c(OC)c2)c2cccc(c2)NC(=O)CCC(=O)N(C)C(CC(C)C)C(=O)NC(Cc2ccccc2)C(=O)N1C (centres unmarked) [JW11-D2-8]
– | – | > 3000 | COc1ccc(CCC2OC(=O)C3CCCCN3C(=O)C(=O)C(C)(C)COC(=O)C=CCCN(C)C(=O)CNC(=O)C(CC(C)C)N(C)C(=O)C(Cc3ccccc3)NC(=O)C(CC(C)C)N(C)C(=O)CCC(=O)Nc3cccc2c3)cc1OC (centres unmarked) [JW11-D2-9]
– | – | > 3000 | CCC(C)C1C(=O)NCC(=O)N(C)CCC=CC(=O)OCC(C)(C)C(=O)C(=O)N2CCCCC2C(=O)OC(CCc2ccc(OC)c(OC)c2)c2cccc(c2)NC(=O)CCC(=O)N(C)C(CC(C)C)C(=O)NC(CCc2ccccc2)C(=O)N1C (centres unmarked) [JW11-D2-10]
– | – | > 3000 | CCC(C)C1C(=O)NCC(=O)N(C)CCC=CC(=O)OCC(C)(C)C(=O)C(=O)N2CCCCC2C(=O)OC(CCc2ccc(OC)c(OC)c2)c2cccc(c2)NC(=O)CCC(=O)N(C)C(CC(C)C)C(=O)NC(Cc2ccc(O)cc2)C(=O)N1C (centres unmarked) [JW11-D2-13]
– | – | 38.5 ± 4.7 | CCC(C)C1C(=O)NCC(=O)N(C)CCC=CC(=O)OCC(C)(C)C(=O)C(=O)N2CCCCC2C(=O)OC(CCc2ccc(OC)c(OC)c2)c2cccc(c2)NC(=O)CCC(=O)N(C)C(CC(C)C)C(=O)N(C)C(Cc2ccccc2)C(=O)N1C (centres unmarked) [JW11-D2-14]
– | – | > 3000 | CCC(C)C1C(=O)NCC(=O)N(C)CCC=CC(=O)OCC(C)(C)C(=O)C(=O)N2CCCCC2C(=O)OC(CCc2ccc(OC)c(OC)c2)c2cccc(c2)NC(=O)CCC(=O)N(C)C(CC(C)C)C(=O)NC(CC(C)C)C(=O)N1C (centres unmarked) [JW11-D2-15]
– | – | > 3000 | CCC(C)C1C(=O)NCC(=O)N(C)CCC=CC(=O)OCC(C)(C)C(=O)C(=O)N2CCCCC2C(=O)OC(CCc2ccc(OC)c(OC)c2)c2cccc(c2)NC(=O)CCC(=O)NC(CC(C)C)C(=O)NC(Cc2ccccc2)C(=O)N1C (centres unmarked) [JW11-D2-16]
– | – | > 3000 | CCC(C)C1C(=O)NC(Cc2ccccc2)C(=O)N(C)C(C(C)CC)C(=O)NCC(=O)N(C)CCC=CC(=O)OCC(C)(C)C(=O)C(=O)N2CCCCC2C(=O)OC(CCc2ccc(OC)c(OC)c2)c2cccc(c2)NC(=O)CCC(=O)N1C (centres unmarked) [JW11-D2-17]
– | – | > 3000 | CCCC1C(=O)NC(Cc2ccccc2)C(=O)N(C)C(C(C)CC)C(=O)NCC(=O)N(C)CCC=CC(=O)OCC(C)(C)C(=O)C(=O)N2CCCCC2C(=O)OC(CCc2ccc(OC)c(OC)c2)c2cccc(c2)NC(=O)CCC(=O)N1C (centres unmarked) [JW11-D2-18]
– | – | > 3000 | CCCCC1C(=O)NC(Cc2ccccc2)C(=O)N(C)C(C(C)CC)C(=O)NCC(=O)N(C)CCC=CC(=O)OCC(C)(C)C(=O)C(=O)N2CCCCC2C(=O)OC(CCc2ccc(OC)c(OC)c2)c2cccc(c2)NC(=O)CCC(=O)N1C (centres unmarked) [JW11-D2-19]
– | – | 62.3 ± 5.1 | CCC(C)C1C(=O)NCC(=O)N(C)CCC=CC(=O)OCC(C)(C)C(=O)C(=O)N2CCCCC2C(=O)OC(CCc2ccc(OC)c(OC)c2)c2cccc(c2)NC(=O)CCC(=O)N(C)C(C(C)C)C(=O)NC(Cc2ccccc2)C(=O)N1C (centres unmarked) [JW11-D2-20]
– | – | > 3000 | CCC(C)C1C(=O)NCC(=O)N(C)CCC=CC(=O)OCC(C)(C)C(=O)C(=O)N2CCCCC2C(=O)OC(CCc2ccc(OC)c(OC)c2)c2cccc(c2)NC(=O)CCC(=O)N(C)C(Cc2ccccc2)C(=O)NC(Cc2ccccc2)C(=O)N1C (centres unmarked) [JW11-D2-21]
5.1 ± 0.7 | <3.0 | > 3000 | COc1ccc(CC[C@H]2OC(=O)[C@@H]3CCCCN3C(=O)C(=O)C(C)(C)COC(=O)C=CCCN(C)C(=O)CNC(=O)CN(C)C(=O)[C@H](Cc3ccc(O)cc3)NC(=O)[C@@H](Cc3ccccc3)N(C)C(=O)COc3cccc2c3)cc1OC [WL03-G11]
